Here are results for 1 substance from patent US6680003B2, “Chiral doping agents with variable spiral pitch induction and application thereof to a reflective color display” (Asulab S.A., priority 2000, dated 2004).

This series is described as follows: Solubility in a nematic.

“2-[4′-(6-Acryloyloxyhexyloxy)-2′.5′-methylazophenyl-4-carbonyloy]—5-[4-(6-Acryloyloxyhexyloxy)benzoyl]-1.4:3.6-D-glucitol [Compound 209sf]” had a Solubility s of 4.0% < s % mass.
